Measured values reported in US9802944B2, “Bicyclic compounds as autotaxin (ATX) and lysophosphatidic acid (LPA) production inhibitors” (Hoffmann-La Roche Inc., priority 2014, dated 2017).

Biological target: ATX (human His-tagged) (Homo sapiens (Human), UniProt Q13822)
Experiment: Human ATX enzyme inhibition assay (fluorescence quenching, MR121 substrate)
Type: biochemical
Conditions: 30 nM ATX, 1 μM MR121 substrate, 30° C., pH 8.0
Method: Production of Human Full Length ATX, with and without his Tag
Autotaxin (ATX-ENPP2) Cloning:
cDNA was prepared from commercial human hematopoietic cells total RNA and used as template in overlapping PCR to generate a full length human ENPP2 ORF with or without a 3′-6×His tag. These full length inserts were cloned into the pcDNA3.1V5-His TOPO (Invitrogen) vector. The DNA sequences of several single clones were verified. The DNA from a correct full length clone was used to transfect Hek293 cells for verification of protein expression. […] ATX Fermentation: Recombinant protein was produced by large-scale transient transfection in 20 L controlled stirred tank bioreactors (Sartorius). During cell growth and transfection, temperature, stirrer speed, pH and dissolved oxygen concentration were maintained at 37° C., 120 rpm, 7.1 and 30% DO, respectively. […] Expression was analyzed by Western Blot, enzymatic assay and/or analytical IMAC chromatography. After cooling the cell suspension to 4° C. in a flow-through heat exchanger, cell separation and sterile filtration of supernatant was performed by filtration through Zeta Plus 60M02 E16 (Cuno) and Sartopore 2 XLG (Sartorius) filter units. The supernatant was stored at 4° C. prior to purification. ATX Purification: 20 liter of culture supernatant were conditioned for ultrafiltration by adding Brij 35 to a final concentration of 0.02% and by adjusting the pH to 7.0 using 1 M HCl. Then the supernatant was first microfiltered through a 0.2 μm Ultran-Pilot Open Channel PES filter (Whatman) and afterwards concentrated to 1 liter through an Ultran-Pilot Screen Channel PES filter with 30 kDa MWCO (Whatman). Prior to IMAC chromatography, NiSO4 was added to a final concentration of 1 mM. The cleared supernatant was then applied to a HisTrap column (GE Healthcare) previously equilibrated in 50 mM Na2HPO4 pH 7.0, 0.5 M NaCl, 10% glycerol, 0.3% CHAPS, 0.02% NaN3. The column was washed stepwise with the same buffer containing 20 mM, 40 mM and 50 mM imidazole, respectively. The protein was subsequently eluted using a linear gradient to 0.5 M imidazole in 15 column volumes. ATX containing fractions were pooled and concentrated using an Amicon cell equipped with a 30 kDa PES filter membrane. The protein was further purified by size exclusion chromatography on Superdex S-200 prep grade (XK 26/100) (GE Healthcare) in 20 mM BICINE pH 8.5, 0.15 M NaCl, 10% glycerol, 0.3% CHAPS, 0.02% NaN3. […] The protein was stored at −80° C. […] 10 μL of MR121 substrate solution was added (1 μM final concentration), mixed 30 times and then incubated for 15 minutes at 30° C.

SMILES	IC50
O=C(c1cc(OCC2CCCOC2)nc(C2CC2)c1)N1C[C@@H]2CN(C(=O)[C@@H]3CCc4[nH]nnc4C3)C[C@H]2C1 (stereo partly drawn) [Example 2.16, ((3aS,6aS)-5-(2-cyclopropyl-6-((tetrahydro-2H-pyran-3-yl)methoxy)isonicotinoyl)hexahydropyrrolo[3,4-c]pyrrol-2(1H)-yl)((R)-4,5,6,7-tetrahydro-1H-benzo[d][1,2,3]triazol-5-yl)methanone]	17 nM
O=C(c1cc(OCC2CCOCC2)nc(C2CC2)c1)N1C[C@@H]2CN(Cc3ccc4[nH]nnc4c3)C[C@H]2C1 [Example 2.18, ((3aS,6aS)-5-((1H-benzo[d][1,2,3]triazol-5-yl)methyl)hexahydropyrrolo[3,4-c]pyrrol-2(1H)-yl)(2-cyclopropyl-6-((tetrahydro-2H-pyran-4-yl)methoxy)pyridin-4-yl)methanone]	10 nM
O=C(c1cnc(OC2CCOC2)c(C2CC2)c1)N1C[C@@H]2CN(C(=O)c3ccc4[nH]nnc4c3)C[C@H]2C1 (stereo partly drawn) [Example 2.05, ((3aS,6aS)-5-(1H-benzo[d][1,2,3]triazole-5-carbonyl)hexahydropyrrolo[3,4-c]pyrrol-2(1H)-yl)(5-cyclopropyl-6-(tetrahydrofuran-3-yloxy)pyridin-3-yl)methanone]	10.5 nM
O=C(c1cnc(OC2CCOCC2)c(C2CC2)c1)N1C[C@@H]2CN(C(=O)[C@@H]3CCc4[nH]nnc4C3)C[C@H]2C1 [Example 2.09, ((3aS,6aS)-5-(5-cyclopropyl-6-(tetrahydro-2H-pyran-4-yloxy)nicotinoyl)hexahydropyrrolo[3,4-c]pyrrol-2(1H)-yl)((R)-4,5,6,7-tetrahydro-1H-benzo[d][1,2,3]triazol-5-yl)methanone]	20 nM
CN(C)c1cc(C(=O)N2C[C@@H]3CN(C(=O)[C@@H]4CCc5[nH]nnc5C4)C[C@H]3C2)cc(OCC2CCOCC2)n1 [Example 2.25, ((3aS,6aS)-5-(2-(dimethylamino)-6-((tetrahydro-2H-pyran-4-yl)methoxy)isonicotinoyl)hexahydropyrrolo[3,4-c]pyrrol-2(1H)-yl)((R)-4,5,6,7-tetrahydro-1H-benzo[d][1,2,3]triazol-5-yl)methanone]	17 nM
O=C(c1cc(OCC2CCOCC2)nc(C2CC2)c1)N1C[C@@H]2CN(C(=O)c3ccc4[nH]nnc4c3)C[C@H]2C1 [Example 2.01, ((3aS,6aS)-5-(1H-benzo[d][1,2,3]triazole-5-carbonyl)hexahydropyrrolo[3,4-c]pyrrol-2(1H)-yl)(2-cyclopropyl-6-((tetrahydro-2H-pyran-4-yl)methoxy)pyridin-4-yl)methanone]	3 nM
O=C(c1ccc2[nH]nnc2c1)N1CC[C@@H]2CN(C(=O)c3cc(OCC4CCOCC4)nc(C4CC4)c3)C[C@@H]2CC1 [Example 2.22, ((3aR,8aS)-6-(1H-benzo[d][1,2,3]triazole-5-carbonyl)octahydropyrrolo[3,4-d]azepin-2(1H)-yl)(2-cyclopropyl-6-((tetrahydro-2H-pyran-4-yl)methoxy)pyridin-4-yl)methanone]	10 nM
NS(=O)(=O)c1ccc(C(=O)N2C[C@H]3CN(C(=O)c4cnc(OC5CCCOC5)c(C5CC5)c4)C[C@@H]3C2)nc1 (stereo partly drawn) [Example 2.13, 6-((3aR,6aR)-5-(5-cyclopropyl-6-(tetrahydro-2H-pyran-3-yloxy)nicotinoyl)octahydropyrrolo[3,4-c]pyrrole-2-carbonyl)pyridine-3-sulfonamide]	10 nM
CN(C)c1cc(C(=O)N2C[C@@H]3CN(C(=O)c4ccc5[nH]nnc5c4)C[C@H]3C2)cc(OCC2CCOCC2)n1 [Example 2.23, ((3aS,6aS)-5-(1H-benzo[d][1,2,3]triazole-5-carbonyl)hexahydropyrrolo[3,4-c]pyrrol-2(1H)-yl)(2-(dimethylamino)-6-((tetrahydro-2H-pyran-4-yl)methoxy)pyridin-4-yl)methanone]	5 nM
O=C(c1cc(Cl)nc(OCC2CCOCC2)c1)N1C[C@@H]2CN(C(=O)c3ccc4[nH]nnc4c3)C[C@H]2C1 [Example 2.20, ((3aS,6aS)-5-(1H-benzo[d][1,2,3]triazole-5-carbonyl)hexahydropyrrolo[3,4-c]pyrrol-2(1H)-yl)(2-chloro-6-((tetrahydro-2H-pyran-4-yl)methoxy)pyridin-4-yl)methanone]	40 nM
NS(=O)(=O)c1ccc(C(=O)N2C[C@H]3CN(C(=O)c4cc(OCC5CCCOC5)nc(C5CC5)c4)C[C@@H]3C2)nc1 (stereo partly drawn) [Example 2.17, 6-((3aR,6aR)-5-(2-cyclopropyl-6-((tetrahydro-2H-pyran-3-yl)methoxy)isonicotinoyl)octahydropyrrolo[3,4-c]pyrrole-2-carbonyl)pyridine-3-sulfonamide]	9 nM

Next, values leading:

IC50	SMILES
25 nM	O=C(c1cc(OCC2CCOCC2)nc(C2CC2)c1)N1CC[C@@H]2CN(C(=O)c3ccc4[nH]c(=O)oc4c3)C[C@@H]2CC1 [Example 3.02, 6-((3aR,8aS)-6-(2-cyclopropyl-6-((tetrahydro-2H-pyran-4-yl)methoxy)isonicotinoyl)decahydropyrrolo[3,4-d]azepine-2-carbonyl)benzo[d]oxazol-2(3H)-one]
14 nM	O=C(c1cc(OCC2CCOCC2)nc(C2CC2)c1)N1C[C@@H]2CN(C(=O)c3ccc4[nH]nnc4c3)C[C@@H]2C1 [Example 2.26, ((3aR,6aS)-5-(1H-benzo[d][1,2,3]triazole-5-carbonyl)hexahydropyrrolo[3,4-c]pyrrol-2(1H)-yl)(2-cyclopropyl-6-((tetrahydro-2H-pyran-4-yl)methoxy)pyridin-4-yl)methanone]
12 nM	O=C(c1cc(OCC2CCOCC2)nc(C2CC2)c1)N1C[C@@H]2CN(C(=O)c3ccc4[nH]c(=O)oc4c3)C[C@H]2C1 [Example 3.01, 6-((3aS,6aS)-5-(2-cyclopropyl-6-((tetrahydro-2H-pyran-4-yl)methoxy)isonicotinoyl)octahydropyrrolo[3,4-c]pyrrole-2-carbonyl)benzo[d]oxazol-2(3H)-one]
7 nM	O=C(c1cc(OCC2CCOCC2)cc(C2CC2)c1)N1C[C@@H]2CN(C(=O)c3ccc4[nH]nnc4c3)C[C@H]2C1 [Example 2.29, ((3aS,6aS)-5-(1H-benzo[d][1,2,3]triazole-5-carbonyl)hexahydropyrrolo[3,4-c]pyrrol-2(1H)-yl)(3-cyclopropyl-5-((tetrahydro-2H-pyran-4-yl)methoxy)phenyl)methanone]
6 nM	O=C(OCc1c[nH]nn1)N1C[C@H]2CCN(C(=O)c3cc(OCC4CCOCC4)nc(C4CC4)c3)CC[C@H]2C1 [Example 7, 1H-Triazol-4-ylmethyl (3aS,8aR)-6-[2-cyclopropyl-6-(oxan-4-ylmethoxy)pyridine-4-carbonyl]-1,3,3a,4,5,7,8,8a-octahydropyrrolo[3,4-d]azepine-2-carboxylate]
25 nM	O=C(c1cnc(OC2CCOCC2)c(C2CC2)c1)N1C[C@@H]2CN(C(=O)c3ccc4[nH]c(=O)oc4c3)C[C@H]2C1 [Example 3, 6-((3aS,6aS)-5-(5-Cyclopropyl-6-(tetrahydro-2H-pyran-4-yloxy)nicotinoyl)octahydropyrrolo[3,4-c]pyrrole-2-carbonyl)benzo[d]oxazol-2(3H)-one]
